Tested on: MDA-MB-231 cells
Experiment: Cell proliferation assay (CellTiter-Glo), MDA-MB-231
Format: cell-based
Conditions: 72 h treatment, Celltiter-Glo luminescence
Procedure: Example 238: Cell Proliferation Assay
MDA-MB-231 and EVSA-T cells (10000 cells/well) were plated onto 96-well plates (Corning, Cat #3917) in 95 μL of medium (RPMI-1640 containing 10% FBS and MEM containing 10% FBS, respectively). Compounds with various concentrations ([…]) were added to the wells. After treatment for 72 h, 30 μL of Celltiter-Glo reagent (Promega, Cat #G7573) was added and incubated at room temperature for 15 min, then the luminescent signal was determined using a microplate reader (Biotek, SynergyH1). The inhibitor dose-response curves were analyzed using normalized IC50 regression curve fitting with control based normalization.

Structure (SMILES) | IC50 (Homo sapiens, MDA-MB-231, 72 h) [nM] | IC50 [nM]
C[C@@H]1CN(CC(=O)N2CC(C)(C)c3c2cc(Cc2ccc(F)cc2)c2cc(C(F)(F)F)nn32)[C@@H](CN2CCOC[C@H]2C)CN1 [Compound 150, 1-(4-(4-fluorobenzyl)-8,8-dimethyl-2-(trifluoromethyl)-7,8-dihydro-6H-pyrazolo[1,5-a]pyrrolo[2,3-e]pyridin-6-yl)-2-((2R,5R)-5-methyl-2-(((R)-3-methylmorpholino)methyl)piperazin-1-yl)ethan-1-one] | 490 | 
C[C@@H]1CN(CC(=O)N2CC(C)(C)c3c2cc(Cc2ccc(F)cc2)c2nn(CC(C)(C)O)c(=O)n32)[C@@H](CN2CC(F)(F)C[C@H]2C)CN1 [Compound 288, 6-(2-((2R,5R)-2-(((R)-4,4-difluoro-2-methylpyrrolidin-1-yl)methyl)-5-methylpiperazin-1-yl)acetyl)-4-(4-fluorobenzyl)-2-(2-hydroxy-2-methylpropyl)-8,8-dimethyl-2,6,7,8-tetrahydro-1H-pyrrolo[2,3-e][1,2,4]triazolo[4,3-a]pyridin-1-one] | 29 | 
C[C@@H]1CN(CC(=O)N2CC(C)(C)c3c2cc(Cc2ccc(F)cc2)c2nc(C(=O)O)nn32)[C@@H](CN2CCOC[C@H]2C)CN1 [Compound 197, 4-(4-fluorobenzyl)-8,8-dimethyl-6-(2-((2R,5R)-5-methyl-2-(((R)-3-methylmorpholino)methyl)piperazin-1-yl)acetyl)-7,8-dihydro-6H-pyrrolo[2,3-e][1,2,4]triazolo[1,5-a]pyridine-2-carboxylic acid] | > 10000 | 
CCc1ncc2c(Cc3ccc(F)cc3)cc3c(n12)C(C)(C)CN3C(=O)CN1C[C@@H](C)NC[C@@H]1CN1CCOC[C@H]1C [Example 4, 1-(1-ethyl-4-(4-fluorobenzyl)-8,8-dimethyl-7,8-dihydro-6H-imidazo[1,5-a]pyrrolo[2,3-e]pyridin-6-yl)-2-((2R,5R)-5-methyl-2-(((R)-3-methylmorpholino)methyl)piperazin-1-yl)ethan-1-one] | 97 | 
C[C@@H]1CN(CC(=O)N2CC(C)(C)c3c2cc(Cc2ccc(F)cc2)c2nn(CC(C)(C)O)c(=O)n32)[C@@H](CN2C[C@H]3C[C@@H]2CO3)CN1 [Compound 284, 6-(2-((2R,5R)-2-(((1R,4R)-2-oxa-5-azabicyclo[2.2.1]heptan-5-yl)methyl)-5-methylpiperazin-1-yl)acetyl)-4-(4-fluorobenzyl)-2-(2-hydroxy-2-methylpropyl)-8,8-dimethyl-2,6,7,8-tetrahydro-1H-pyrrolo[2,3-e][1,2,4]triazolo[4,3-a]pyridin-1-one] | 250 | 
C[C@@H]1CN(CC(=O)N2CC(C)(C)c3c2cc(Cc2ccc(F)cc2)c2nc(N4CCNC(=O)C4)nn32)[C@@H](CN2CCOC[C@H]2C)CN1 [Compound 195, 4-(4-(4-fluorobenzyl)-8,8-dimethyl-6-(2-((2R,5R)-5-methyl-2-(((R)-3-methylmorpholino)methyl)piperazin-1-yl)acetyl)-7,8-dihydro-6H-pyrrolo[2,3-e][1,2,4]triazolo[1,5-a]pyridin-2-yl)piperazin-2-one] | 180 | 
C[C@@H]1CN(CC(=O)N2CC(C)(C)c3c2cc(Cc2ccc(F)cc2)c2nc(C(F)(F)F)cn32)C(Cn2ccnc2C(F)(F)F)CN1 (stereo in doubt) [Compound 177, 1-(4-(4-fluorobenzyl)-8,8-dimethyl-2-(trifluoromethyl)-7,8-dihydro-6H-imidazo[1,2-a]pyrrolo[2,3-e]pyridin-6-yl)-2-((2S,5R)-5-methyl-2-((2-(trifluoromethyl)-1H-imidazol-1-yl)methyl)piperazin-1-yl)ethan-1-one] | 320 | 
C[C@@H]1CN(CC(=O)N2CC(C)(C)c3c2cc(Cc2ccc(F)cc2)c2nc(N4CCNC4=O)nn32)[C@@H](CN2CCOC[C@H]2C)CN1 [Compound 248, 1-(4-(4-fluorobenzyl)-8,8-dimethyl-6-(2-((2R,5R)-5-methyl-2-(((R)-3-methylmorpholino)methyl)piperazin-1-yl)acetyl)-7,8-dihydro-6H-pyrrolo[2,3-e][1,2,4]triazolo[1,5-a]pyridin-2-yl)imidazolidin-2-one] | 47 | 
C[C@@H]1CN(CC(=O)N2CC(C)(C)c3c2cc(C(F)(F)C24CC(C(F)(F)F)(C2)C4)c2ncnn32)[C@@H](CN2CCOC[C@H]2C)CN1 [Compound 166, 1-(4-(difluoro(3-(trifluoromethyl)bicyclo[1.1.1]pentan-1-yl)methyl)-8,8-dimethyl-7,8-dihydro-6H-pyrrolo[2,3-e][1,2,4]triazolo[1,5-a]pyridin-6-yl)-2-((2R,5R)-5-methyl-2-(((R)-3-methylmorpholino)methyl)piperazin-1-yl)ethan-1-one] | 150 | 
C[C@@H]1CN(CC(=O)N2CC(C)(C)c3c2cc(Cc2ccc(F)cc2)c2nc(P(C)(C)=O)nn32)[C@@H](CN2CCOC[C@H]2C)CN1 [Compound 209, 1-(2-(dimethylphosphoryl)-4-(4-fluorobenzyl)-8,8-dimethyl-7,8-dihydro-6H-pyrrolo[2,3-e][1,2,4]triazolo[1,5-a]pyridin-6-yl)-2-((2R,5R)-5-methyl-2-(((R)-3-methylmorpholino)methyl)piperazin-1-yl)ethan-1-one] | 2160 | 
C[C@@H]1CN(CC(=O)N2CC(C)(C)c3c2cc(Cc2ccc(F)cc2)c2nn(C[C@@H]4COCCO4)c(=O)n32)[C@@H](CN2CCOC[C@H]2C)CN1 [Compound 233, 2-(((R)-1,4-dioxan-2-yl)methyl)-4-(4-fluorobenzyl)-8,8-di methyl-6-(2-((2R,5R)-5-methyl-2-(((R)-3-methylmorpholino)methyl)piperazin-1-yl)acetyl)-2,6,7,8-tetrahydro-1H-pyrrolo[2,3-e][1,2,4]triazolo[4,3-a]pyridin-1-one] | 260 | 
C[C@@H]1CN(CC(=O)N2CC(C)(C)c3c2cc(Cc2ccc(F)cc2)c2nc(NS(C)(=O)=O)nn32)[C@@H](CN2CCOC[C@H]2C)CN1 [Example 15, N-(4-(4-fluorobenzyl)-8,8-dimethyl-6-(2-((2R,5R)-5-methyl-2-(((R)-3-methylmorpholino)methyl)piperazin-1-yl)acetyl)-7,8-dihydro-6H-pyrrolo[2,3-e][1,2,4]triazolo[1,5-a]pyridin-2-yl)methanesulfonamide] | > 10000 | 
C[C@@H]1CN(CC(=O)N2CC(C)(C)c3c2cc(Cc2ccc(F)cc2)c2nc(N4C[C@@H](O)[C@H](O)C4)nn32)[C@@H](CN2CCOC[C@H]2C)CN1 [Compound 226, 1-(2-((3R,4R)-3,4-dihydroxypyrrolidin-1-yl)-4-(4-fluorobenzyl)-8,8-dimethyl-7,8-dihydro-6H-pyrrolo[2,3-e][1,2,4]triazolo[1,5-a]pyridin-6-yl)-2-((2R,5R)-5-methyl-2-(((R)-3-methylmorpholino)methyl)piperazin-1-yl)ethan-1-one] |  | 530
C[C@@H]1CN(CC(=O)N2CC(C)(C)c3c2cc(Cc2ccc(F)cc2)c2nccnc32)[C@@H](CN2CCOC[C@H]2C)CN1 [Example 26, 1-(5-(4-fluorobenzyl)-9,9-dimethyl-8,9-dihydro-7H-pyrrolo[3,2-f]quinoxalin-7-yl)-2-((2R,5R)-5-methyl-2-(((R)-3-methylmorpholino)methyl)piperazin-1-yl)ethan-1-one] | 180 | 
C[C@@H]1CN(CC(=O)N2CC(C)(C)c3c2cc(Cc2ccc(F)cc2)c2nc(CS(C)(=O)=O)nn32)[C@@H](CN2CCOC[C@H]2C)CN1 [Compound 141, 1-(4-(4-fluorobenzyl)-8,8-dimethyl-2-((methylsulfonyl)methyl)-7,8-dihydro-6H-pyrrolo[2,3-e][1,2,4]triazolo[1,5-a]pyridin-6-yl)-2-((2R,5R)-5-methyl-2-(((R)-3-methylmorpholino)methyl)piperazin-1-yl)ethan-1-one] | 310 | 
C[C@@H]1CN(CC(=O)N2CC(C)(C)c3c2cc(Cc2ccc(F)cc2)c2nc(C(F)(F)F)cn32)[C@@H](CN2CCN(S(C)(=O)=O)C[C@H]2C)CN1 [Compound 178, 1-(4-(4-fluorobenzyl)-8,8-dimethyl-2-(trifluoromethyl)-7,8-dihydro-6H-imidazo[1,2-a]pyrrolo[2,3-e]pyridin-6-yl)-2-((2R,5R)-5-methyl-2-(((R)-2-methyl-4-(methylsulfonyl)piperazin-1-yl)methyl)piperazin-1-yl)ethan-1-one] | 490 | 
C[C@@H]1CN(CC(=O)N2CC(C)(C)c3c2cc(Cc2ccc(F)cc2)c2ncnn32)[C@@H](CN2CCN(C(N)=O)C[C@H]2C)CN1 [Compound 215, (R)-4-(((2R,5R)-1-(2-(4-(4-fluorobenzyl)-8,8-dimethyl-7,8-dihydro-6H-pyrrolo[2,3-e][1,2,4]triazolo[1,5-a]pyridin-6-yl)-2-oxoethyl)-5-methylpiperazin-2-yl)methyl)-3-methylpiperazine-1-carboxamide] | 430 | 
C[C@@H]1CN(CC(=O)N2CC(C)(C)c3c2cc(Cc2ccc(F)cc2)c2nc(C(F)(F)F)cn32)[C@@H](CN2CCOC[C@H]2CO)CN1 [Compound 160, 1-(4-(4-fluorobenzyl)-8,8-dimethyl-2-(trifluoromethyl)-7,8-dihydro-6H-imidazo[1,2-a]pyrrolo[2,3-e]pyridin-6-yl)-2-((2R,5R)-2-((3-(hydroxymethyl)morpholino)methyl)-5-methylpiperazin-1-yl)ethan-1-one] | 330 | 
Cc1nnc2c(Cc3ccc(F)cc3F)cc3c(n12)C(C)(C)CN3C(=O)CN1C[C@@H](C)NC[C@@H]1CN1CCOC[C@H]1C [Compound 156, 1-(4-(2,4-difluorobenzyl)-1,8,8-trimethyl-7,8-dihydro-6H-pyrrolo[2,3-e][1,2,4]triazolo[4,3-a]pyridin-6-yl)-2-((2R,5R)-5-methyl-2-(((R)-3-methylmorpholino)methyl)piperazin-1-yl)ethan-1-one] | 1330 | 
